Data: PubChem BioAssay AID1996
In brackets after ≈: the same amount, converted by molar mass.

Conditions: buffer; pH 7.4; 200.0 µM
Compound `Cc1ccc(NC(=O)c2ccc3c(c2)OCCO3)nc1` has a solubility kinetic of over 40.5 µg/mL.
For `O=C(CN1C(=O)NC2(CCCC2)C1=O)NCc1ccco1`, the solubility kinetic was over 43.7 µg/mL.
`O=C(NC1CC1)C1CC(=O)N(c2cccc(Cl)c2)C1` (centres undefined) showed a solubility kinetic of over 41.8 µg/mL.
Compound `CCn1c(SCC(=O)NC2CC2)nnc1-c1csc(C)c1` has a solubility kinetic of over 48.4 µg/mL.
In the case of `CCCC1c2ccsc2CCN1C(=S)NC` (centres undefined), the solubility kinetic is reported as 29.8 µg/mL (≈ 117 µM).
Work on `O=C(O)CCn1c(-c2ccccc2)cc2ccccc21` yielded a solubility kinetic of 35.7 µg/mL (≈ 135 µM).
Compound `O=C(CCl)Nc1sccc1C(=O)c1ccccc1` has a solubility kinetic of 3.6 µg/mL (≈ 12.9 µM).
With `Cn1cc(S(=O)(=O)N2CCCC2)cc1C(=O)O` the solubility kinetic was over 38.7 µg/mL.
`Cc1ccc(C(=O)NCc2cccnc2)o1` showed a solubility kinetic of over 32.4 µg/mL.
`Oc1ccc(/C=N/NC(=S)N2CCOCC2)cc1` gave a solubility kinetic of over 39.8 µg/mL.
`O=C(C1CCC1)N1CCN(c2ccnc3cc(Cl)ccc23)CC1` gave a solubility kinetic of 45.4 µg/mL (≈ 138 µM).
In the case of `Cc1[nH]c2ccccc2c1C(=O)COC(=O)c1ccc[n+]([O-])c1`, the solubility kinetic is reported as 39.7 µg/mL (≈ 128 µM).
For `O=C1CSC(c2ccc(Cl)cc2)N1c1cccnc1` (centres undefined), the solubility kinetic was 42.1 µg/mL (≈ 145 µM).
Work on `COCCNc1oc(Cc2cccc3ccccc23)nc1C#N` yielded a solubility kinetic of 43.3 µg/mL (≈ 141 µM).
For `Cc1cc(=O)oc2cc(OCC(=O)N3CCN(Cc4ccccc4)CC3)ccc12`, the solubility kinetic was 56.7 µg/mL (≈ 144 µM).
For `COc1cccc(NC(=O)c2cc3ccccc3o/c2=N\O)c1`, the solubility kinetic was 22.2 µg/mL (≈ 71.5 µM).
Compound `O=c1[nH]c(-c2ccccc2)c(-c2ccccc2)nc1[N+](=O)[O-]` has a solubility kinetic of 42.1 µg/mL (≈ 144 µM).
Work on `Fc1ccc(COc2ccc(C(=S)N3CCCC3)cc2)cc1` yielded a solubility kinetic of under 0.7 µg/mL.
Compound `CCCc1nc2cc(Cl)c([N+](=O)[O-])cc2o1` has a solubility kinetic of 5 µg/mL (≈ 20.8 µM).
With `Cc1ccc2c(ccc(=S)n2C)c1` the solubility kinetic was 24.1 µg/mL (≈ 127 µM).
For `Cc1ccc(CS(=O)(=O)CCC(=O)NCCc2ccccc2)cc1`, the solubility kinetic was 5.2 µg/mL (≈ 15.1 µM).
Compound `COc1cccc(CN2CC=C(c3ccc(F)cc3)CC2)c1` has a solubility kinetic of 10.3 µg/mL (≈ 34.6 µM).
Compound `CN1CCN2c3ncccc3Cc3ccccc3[C@@H]2C1` has a solubility kinetic of 30.2 µg/mL (≈ 114 µM).
For `CC(=O)Nc1c2c(nn1-c1ccccc1C)CS(=O)C2` (centres undefined), the solubility kinetic was over 43.4 µg/mL.
With `Cc1ccsc1C(=O)NCCc1c[nH]c2ccccc12` the solubility kinetic was over 42.7 µg/mL.
Compound `O=C(NC1CCN(Cc2ccc(Cl)c(Cl)c2)CC1)c1ccccc1` has a solubility kinetic of 1.9 µg/mL (≈ 5.23 µM).
With `O=C(COc1ccc(Cl)cc1[N+](=O)[O-])N1CCCCCC1` the solubility kinetic was over 46.9 µg/mL.
Work on `CC1C(=O)NC(=O)C1c1ccccc1` (centres undefined) yielded a solubility kinetic of over 28.4 µg/mL.
Compound `CCCOc1ccc(C(=O)Nc2ccc3c(c2)OCCO3)cc1` has a solubility kinetic of 1 µg/mL (≈ 3.19 µM).
With `CCN(CC)C(=S)Oc1c(Cl)cccc1Cl` the solubility kinetic was 2.2 µg/mL (≈ 7.91 µM).
`COCc1cc(OC(=O)N(C)C)nc(-c2ccc(C)c(Cl)c2)n1` showed a solubility kinetic of 0.7 µg/mL (≈ 2.08 µM).
`COc1ccccc1OCCn1c(=S)[nH]c2ccccc21` showed a solubility kinetic of 1.4 µg/mL (≈ 4.66 µM).
For `O=S(=O)(/N=C(/Nc1cccnc1Cl)c1ccccc1)c1ccccc1`, the solubility kinetic was over 55.8 µg/mL.
`CC(OC(=O)c1cnc2ccccc2n1)c1ccccc1Cl` (centres undefined) gave a solubility kinetic of 14.8 µg/mL (≈ 47.3 µM).
`O=C1CSC(=S)N1c1ccc(F)c(Cl)c1` showed a solubility kinetic of 1.3 µg/mL (≈ 4.97 µM).
For `O=C(Nc1cccc(C(F)(F)F)c1)c1c(O)c2ccccc2[nH]c1=O`, the solubility kinetic was under 0.4 µg/mL.
With `O=C(NCC(=O)N1CC=C(c2ccccc2)CC1)c1ccc(OC(F)F)cc1` the solubility kinetic was 8.2 µg/mL (≈ 21.2 µM).
Compound `CN(C)/C=C/C(=O)c1ccc(F)cc1F` has a solubility kinetic of over 31.7 µg/mL.
With `O=C(COC(=O)/C=C/c1ccccc1)NC1CC1` the solubility kinetic was over 36.8 µg/mL.
In the case of `Cl.c1ccc(CCNCc2cccnc2)cc1`, the solubility kinetic is reported as 35.3 µg/mL.
Compound `CC(CCc1ccccc1)NC(=O)CCC(=O)N1CCC(C(N)=O)CC1` (centres undefined) has a solubility kinetic of 48.7 µg/mL (≈ 135 µM).
Work on `O=C(O)c1cc(O)ccc1NC(=O)c1cccc2ccccc12` yielded a solubility kinetic of over 46.1 µg/mL.
In the case of `O=C(Nc1ccccc1C(=O)Nc1ccccc1)c1ccco1`, the solubility kinetic is reported as 0.9 µg/mL (≈ 2.94 µM).
With `O/N=C1\CCSc2ccc(F)cc21` the solubility kinetic was 23.4 µg/mL (≈ 119 µM).
`Cc1cc(=O)[nH]c(SCC(=O)Nc2ccc(F)c([N+](=O)[O-])c2)n1` showed a solubility kinetic of over 50.7 µg/mL.
Compound `O=C(CC(=O)Nc1ccccc1)Nc1ccccc1` has a solubility kinetic of 8.4 µg/mL (≈ 33 µM).
`CC(NC(=O)c1ccc(F)cc1F)C1CC2CCC1C2` (centres undefined) showed a solubility kinetic of 12.7 µg/mL (≈ 45.5 µM).
`C=CCNC(=O)COC(=O)c1c2c(nc3ccccc13)CCC2` gave a solubility kinetic of 40.9 µg/mL (≈ 132 µM).
`CNC(=O)Cn1c(C)cc(=O)c2cccc(OC)c21` gave a solubility kinetic of over 39 µg/mL.
